This note sets out measurements from US20260315497A1, “COMPOSITION FOR TREATING EPILEPSY” (CanaQuest Medical Corp., priority 2022, published 2026).

Molecules are shown by their SMILES. Where only a bound is given, the exact number is not on record here.

Common to all, as to type: in vivo, Male, CF-1 male mice
Data set [1] can be described thus: Toxicity Assessment: ataxia, Loscher scale, Initial Tests. The note with it: just before the MES test, i.p., standard CBD at any dose. On the procedure: (§1) Subjects Male, CF-1 male mice (18-25 grams) were used as subjects. They were housed under standard conditions in the vivarium at the CCBR. They were given 2 days (minimum) to acclimate before testing began.
(§2) Drugs and Doses CBD was provided in pure form and in the described composition. Two four-point dose-response curves were done, one for the pure form CBD and one for the described composition. Ten mice were tested at each dose. (Mice were not re-used.) Compounds were injected intraperitoneally. Testing was done 2 hours after injection. Drugs were injected at a constant volume, and were diluted as necessary using a vehicle of 1:1:18 (Cremophor:alcohol:saline). Dilution is necessary to achieve volumes large enough for injection. Doses were: 0 (vehicle), 25, 50, 100, 200 mg/kg. A 400 mg/kg dose was added later to extend the standard CBD curve.
Toxicity Assessment Ataxia (impaired movement) was assessed using the Loscher scale and was done just before the MES test.

Data set [2] is described as follows: Toxicity Assessment: ataxia, Loscher scale, Further Tests. From the text:
(§3) Subjects Male, CF-1 male mice (18-25 grams) were used as subjects. They were housed under standard conditions in a vivarium at the University of Toronto (CCBR). They were given 2 days (minimum) to acclimate before testing began.
(§4) Drugs and Doses CBD was provided in the form of: 1) standard CBD isolate, 2) CBD in DHA/EPA without emulsification (2% DHA, 2% EPA, 12% “stabilizer”), 3) CBD emulsified in DHA/EPA to produce larger particles (66.2 nm diameter) and 4) CBD emulsified in DHA/EPA to produce smaller particles (32.7 nm diameter). Drugs were injected intraperitoneally at a constant volume, and were diluted as necessary using a vehicle of 1:1:18 (Cremophor:alcohol:saline). Dilution is necessary to achieve volumes large enough for injection. Doses of CBD ranged from 0 (vehicle) to 400 mg/kg. As in our past studies, the MES stimulus was given 2 hours after injection. Dose-response curves were done for each formulation.
(§5) Toxicity Assessment Ataxia (impaired movement) was assessed using the Loscher scale and was done just before the MES test. Loscher scores of 2-5 were scored a “toxicity present”. […]
The Litchfield/Wilcoxon method could not be applied to the toxicity data for technical reasons, so TD50s were calculated from line plots.

Data set [3] is described as follows: MES test in mice, Further Tests. The note with it: Mus musculus, ip, MES 50 mA, 60 Hz, 0.2 sec, i.p., 2 hours after injection, Litchfield and Wilcoxon method, read-out: ED50 (effective dose to protect 50% of mice).
Source text: as §3, §4
MES Procedure The MES stimulus consisted of 0.2 sec of 60 Hz since-wave current administered at an intensity of 50 mA via corneal electrodes. The percentage of mice protected against the tonic hindlimb extension component of the resulting seizure was measured. […]
as §5

The nature of data set [4]: Maximal Electroshock Seizure (MES) Model in mice, Initial Tests. The note with it: Mus musculus, ip, MES 50 mA, 60 Hz, 0.2 sec, i.p., 2 hours after injection, 10 mice per dose, read-out: ED50 (effective dose to protect 50% of mice). On the procedure:
The composition was tested using the Maximal Electroshock Seizure (MES) Model. This is an established procedure to provide an indication of a compound's ability to prevent seizure spread.
as §1, §2
MES Procedure The MES stimulus consisted of 0.2 sec of 60 Hz since-wave current administered at an intensity of 50 mA via corneal electrodes. The percentage of mice protected against the tonic hindlimb extension component of the resulting seizure was measured. Mice were then euthanized following the procedure.

For `C=C(C)[C@@H]1CCC(C)=C[C@H]1c1c(O)cc(CCCCC)cc1O` [regular CBD, cannabidiol], the signs of toxicity entry in data set [1] was “No mice showed any signs of toxicity”. This compound also came in with a TD25 in data set [2] (Loscher scores of 2-5 = toxicity present, i.p., highest dose tested) of 400 mg/kg. Also, in data set [2] (mouse, in vivo, ip, speculated to be higher than the highest dose tested), the TD50 at 2 h is greater than 400 mg/kg. Moreover, the values for the ED50 in data set [3] and in data set [4] were 146 mg/kg and 162 mg/kg, respectively.

What is called TD50 is the dose at which the toxic effect under study appears in half of the subjects. A high value points to lower toxicity. Broadly, the ED50 is the dose that gives a 50% effect, or the effect in half of the subjects.
